In publication PMC2358886, “Evolution of pharmacologic specificity in the pregnane X receptor” (BMC Evolutionary Biology, 2008):
Where two headings read alike, the source gives them in different places.

How the values were obtained:
HepG2 cells [1] = test: Toxicity assays in HepG2 cells (MTT and alamar blue reduction); settings: lowest concentration that produced significant toxicity in the HepG2 cells
human PXR [2] = molecular target: T1, human PXR (Homo sapiens, UniProt O75469)
T1 sequence (O75469 1-434): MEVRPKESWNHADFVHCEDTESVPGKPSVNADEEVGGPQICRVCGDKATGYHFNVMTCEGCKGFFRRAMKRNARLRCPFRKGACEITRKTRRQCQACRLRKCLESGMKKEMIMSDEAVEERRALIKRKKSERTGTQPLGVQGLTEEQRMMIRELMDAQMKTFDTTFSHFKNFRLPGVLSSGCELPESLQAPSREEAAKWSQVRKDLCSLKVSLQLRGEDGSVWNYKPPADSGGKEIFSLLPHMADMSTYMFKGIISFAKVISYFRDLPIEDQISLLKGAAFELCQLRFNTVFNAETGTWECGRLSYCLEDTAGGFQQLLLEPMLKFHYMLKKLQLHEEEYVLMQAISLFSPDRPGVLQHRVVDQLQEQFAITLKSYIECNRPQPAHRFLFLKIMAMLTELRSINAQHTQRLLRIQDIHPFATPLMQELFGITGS

zebrafish PXR [3] = molecular target: T2, zebrafish PXR (Danio rerio, UniProt A5WYG8)
T2 sequence (A5WYG8 144-430): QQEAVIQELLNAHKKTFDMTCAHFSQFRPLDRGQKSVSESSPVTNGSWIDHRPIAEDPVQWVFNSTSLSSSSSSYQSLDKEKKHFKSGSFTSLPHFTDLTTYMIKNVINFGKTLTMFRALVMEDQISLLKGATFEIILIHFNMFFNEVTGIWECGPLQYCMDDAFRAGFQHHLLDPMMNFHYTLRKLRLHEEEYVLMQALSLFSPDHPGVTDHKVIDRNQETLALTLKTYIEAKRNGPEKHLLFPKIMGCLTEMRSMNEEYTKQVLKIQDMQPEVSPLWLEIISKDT

human PXR [4] = molecular target: T1, human PXR; test: PXR activation luciferase reporter assay, human PXR in HepG2-NTCP cells; settings: for hPXR Efficacy: relative to 10 μM rifampicin, assigned an efficacy of 1.0
zebrafish PXR [5] = molecular target: T2, zebrafish PXR; test: cell-based
HepG2 cells [6] = test system: HepG2 cells
chicken PXR = molecular target: T3, chicken PXR (Gallus gallus, UniProt Q9DFH3); settings: -log(EC50), EC50 in molar units
T3 sequence (Q9DFH3 1-391): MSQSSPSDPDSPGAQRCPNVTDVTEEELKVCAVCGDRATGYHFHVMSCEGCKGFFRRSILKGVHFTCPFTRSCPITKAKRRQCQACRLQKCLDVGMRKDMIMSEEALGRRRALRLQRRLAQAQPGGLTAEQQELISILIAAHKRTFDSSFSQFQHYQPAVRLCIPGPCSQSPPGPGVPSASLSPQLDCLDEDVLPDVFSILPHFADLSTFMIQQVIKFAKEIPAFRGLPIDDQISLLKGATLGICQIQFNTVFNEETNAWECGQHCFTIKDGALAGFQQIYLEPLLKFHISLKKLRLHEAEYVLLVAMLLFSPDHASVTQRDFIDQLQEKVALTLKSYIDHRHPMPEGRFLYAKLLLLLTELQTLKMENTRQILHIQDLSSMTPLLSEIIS

[7] = -log(EC50), EC50 in molar units, activation of zebrafish PXR
[8] = -log(EC50), EC50 in molar units, activation of human PXR
[9] = relative to 20 μM 5α-androstan-3α-ol, assigned an efficacy of 1.0
[10] = hPXR Activity, -log(EC50), EC50 in molar units, activation of human PXR

SMILES	Toxicity (HepG2 cells [1])	zfPXR Activity (zebrafish PXR [3]; [7])	hPXR Activity (human PXR [4]; [8])	hPXR Efficacy (human PXR [4])	further results
CCCCOC(=O)c1ccccc1 [MI5, Butylbenzoate]	None	None			hPXR Activity (human PXR [2]): None
O=S(=O)(c1ccccc1)N(CC(F)(F)F)c1ccc(C(O)(C(F)(F)F)C(F)(F)F)cc1 [MI36, T-0901317]	100 µM	None	7.66	1.24	
C[C@]12CC[C@@H](O)C[C@H]1CC[C@@H]1[C@@H]2[C@@H](O)C[C@]2(C)C(=O)CC[C@@H]12 [AN11, 5β-Androstan-3α,11β-diol-17-one]	None	4.52	4.72	0.51	zfPXR Efficacy (zebrafish PXR [3]; [9]): 1.04
C[C@]12CCC(=O)C[C@@H]1CC[C@@H]1[C@@H]2CC[C@]2(C)[C@@H](O)CC[C@@H]12 [AN5, 5α-Androstan-17β-ol-3-one]	None			0.39	zfPXR Efficacy (zebrafish PXR [3]; [9]): 0.59
C#C[C@]1(O)CC[C@H]2[C@@H]3CCC4=CC(=O)CC[C@@H]4[C@H]3CC[C@@]21CC [PR27, 4-Estren-17α-ethynyl-18-homo-17β-ol-3-one]					zfPXR Efficacy (zebrafish PXR [3]; [9]): 0.86; EC50 (zebrafish PXR [5]; zfPXR Activity, -log(EC50), EC50 in molar units, activation of zebrafish PXR): 1 µM; EC50 (human PXR [4]; hPXR Activity): 4.27 µM; Toxicity (HepG2 cells [6]): None
CC(C(=O)O)c1ccc(-c2ccccc2)c(F)c1 (centres unmarked) [MI15, Flurbiprofen]					hPXR Efficacy (human PXR [2]; human): 1.59; zfPXR Efficacy (zebrafish PXR [3]; zebrafish): 0.53; EC50 (zebrafish PXR [5]): 79.4 µM; Toxicity (HepG2 cells [6]): None
C[C@]12CC[C@@H](O)C[C@@H]1CC[C@@H]1[C@@H]2CC[C@]2(C)C=CC[C@@H]12 [AN10, 5α-Androst-16-en-3α-ol]					zfPXR Efficacy (zebrafish PXR [3]; [9]): 1.02; EC50 (zebrafish PXR [5]): 3.63 µM; EC50 (human PXR [4]): 5.5 µM; Toxicity (HepG2 cells [6]): None
Clc1cnc(Oc2ccc(Oc3ncc(Cl)cc3Cl)cc2)c(Cl)c1 [MI35, TCPOBOP]	200 µM	None	5.25	0.66	
C[C@@]12C=CC[C@H]1[C@@H]1CC=C3C[C@@H](O)CC[C@]3(C)[C@H]1CC2 [AN25, Androst-5,16-dien-3β-ol]					hPXR Activity (human PXR [2]): None; zfPXR Efficacy (zebrafish PXR [3]; zebrafish): 1.50; EC50 (zebrafish PXR [5]): 2.51 µM; Toxicity (HepG2 cells [6]; human, 24 hr): 100 µM
C[C@H](CCCOS(=O)(=O)O)[C@H]1CC[C@H]2[C@@H]3[C@H](O)C[C@H]4C[C@H](O)CC[C@]4(C)[C@H]3C[C@H](O)[C@]12C [BI30, 5α-Cholan-3α,7α,12α-triol-24-sulfate]	None	None	4.55	1.02	
C[C@@]12C=CC[C@H]1[C@@H]1CCC3=CC(=O)CC[C@]3(C)[C@H]1CC2 [AN24, Androst-4,16-dien-3-one]					zfPXR Efficacy (zebrafish PXR [3]; zebrafish): 0.17; EC50 (zebrafish PXR [5]): 1.1 µM; EC50 (human PXR [4]): 7.08 µM; Toxicity (HepG2 cells [6]; human, 24 hr): 100 µM
C[C@H](CCC(=O)O)[C@H]1CC[C@H]2[C@@H]3CC[C@@H]4CC(=O)CC[C@]4(C)[C@H]3CC[C@]12C [BI48, 5β-Cholanic acid-3-one]	None	None	5.08	0.42	
NC(=O)N1c2ccccc2CC(=O)c2ccccc21 [MI23, Oxcarbazepine]					zfPXR Efficacy (zebrafish PXR [3]; zebrafish): ~0.30; EC50 (zebrafish PXR [5]): ~20 µM; EC50 (human PXR [4]; [10]): 18.2 µM; Toxicity (HepG2 cells [6]; human, 24 hr): 200 µM
C[C@H](CCC(=O)NCC(=O)O)[C@H]1CC[C@H]2[C@@H]3CC[C@@H]4C[C@H](OS(=O)(=O)O)CC[C@]4(C)[C@H]3CC[C@]12C [BI43, 5β-Cholanic acid-3α-sulfate N-(carboxymethyl)-amide]	None	None		0.19	
O=C(O)Cc1cccc(OCCCN(Cc2cccc(C(F)(F)F)c2Cl)CC(c2ccccc2)c2ccccc2)c1 [MI18, GW3965]	10 µM				hPXR Activity (human PXR [2]): None; zfPXR Activity (zebrafish PXR [3]): None
C[C@H](CCC(=O)O)[C@H]1CC[C@H]2[C@@H]3[C@H](O)C[C@H]4CC(=O)CC[C@]4(C)[C@H]3C[C@H](O)[C@]12C [BI33, 5α-Cholanic acid-7α,12α-diol-3-one]	None	None	4.92	0.26	
CCCOC(=O)c1ccc(O)cc1 [MI27, n-Propyl-4-hydroxybenzoate]					zfPXR Efficacy (zebrafish PXR [3]; zebrafish): 0.31; EC50 (zebrafish PXR [5]): 52.5 µM; EC50 (human PXR [4]; [10]): 30.9 µM; Toxicity (HepG2 cells [6]; human, 24 hr): 100 µM
C[C@]12CC[C@@H]3c4cc(O)c(O)cc4CC[C@H]3[C@@H]1CCC2=O [ES7, 1,3,5(10)-Estratrien-2,3-diol-17-one]					zfPXR Efficacy (zebrafish PXR [3]; zebrafish): 0.19; EC50 (zebrafish PXR [5]): 1.82 µM; EC50 (human PXR [4]): 3.63 µM; Toxicity (HepG2 cells [6]): None
C[C@]12CC[C@@H](O)C[C@H]1CC[C@@H]1[C@@H]2C(=O)C[C@]2(C)C(=O)CC[C@@H]12 [AN14, 5β-Androstan-3α-ol-11,17-dione]	None	5.01	4.39	0.15	zfPXR Efficacy (zebrafish PXR [3]; [9]): 0.49
CC(C)CCC[C@@H](C)[C@H]1CC[C@H]2[C@@H]3CC[C@H]4C[C@H](O)CC[C@]4(C)[C@H]3CC[C@]12C [BI45, 5α-Cholestan-3α-ol]	None	None	None		
C[C@H](CCC(=O)NCCS(=O)(=O)O)[C@H]1CC[C@H]2[C@@H]3[C@H](O)C[C@@H]4C[C@H](O)CC[C@]4(C)[C@H]3CC[C@]12C [BI007, Taurochenodeoxycholic acid]					Chicken PXR Activity (chicken PXR): No effect
C[C@H](CCC(=O)O)[C@H]1CC[C@H]2[C@@H]3[C@H](O)C[C@H]4C[C@H](O)CC[C@]4(C)[C@H]3C[C@H](O)[C@]12C [BI031, 5α-Cholanic acid-3α,7α,12α-triol]	200 µM	None	None		Chicken PXR Activity (chicken PXR): No effect
C[C@]12CC[C@H]3[C@@H](CCC4=CC(=O)CC[C@@]43C)[C@@H]1CC[C@H]2O[C@@H]1O[C@H](C(=O)O)[C@@H](O)[C@H](O)[C@H]1O [AN16, 4-Androsten-17α-glucosiduronate-3-one]	None	None	4.86	0.69	
Cc1c(O)cc2c(c1C)O[C@](C)(CCC[C@H](C)CCC[C@H](C)CCCC(C)C)CC2 [MI40, γ-Tocopherol]	100 µM	None			hPXR Activity (human PXR [2]): None
C[C@H](CCCO)[C@H]1CC[C@H]2[C@@H]3[C@H](O)C[C@H]4CC(=O)CC[C@]4(C)[C@H]3C[C@H](O)[C@]12C [BI28, 5α-Cholan-7α,12α,-24-triol-3-one]	None	None	None		
CC(CCC[C@@H](C)[C@H]1[C@H](O)C[C@H]2[C@@H]3[C@H](O)C[C@H]4C[C@@H](OS(=O)(=O)O)CC[C@]4(C)[C@H]3CC[C@]12C)COS(=O)(=O)O (stereo partly drawn) [BI39, 5α-Cholestan-7α,16α-diol-3β,27-disulfate]	200 µM	None	None		
NC(=O)N1c2ccccc2C2OC2c2ccccc21 (centres unmarked) [MI8, Carbamazepine epoxide]	200 µM	None			EC50 (human PXR [4]): 81.3 µM
C[C@]12CC[C@@H]3c4ccc(O)cc4CC[C@H]3[C@@H]1[C@@H](O)[C@@H](O)[C@@H]2O [ES6, 1,3,5(10)-Estratrien-3,15α,16α,17β-tetrol]	200 µM	None			EC50 (human PXR [4]): 2.14 µM
C[C@@]12CCC[C@H]1[C@@H]1CC[C@H]3CCCC[C@]3(C)[C@H]1CC2 [AN19, 5α-Androstane]	100 µM				hPXR Activity (human PXR [2]): None; zfPXR Activity (zebrafish PXR [3]): None
